# Literature values as cited in patent publication US20100221330A1, “BUOYANT FORMULATIONS OF BETAINE” (priority 2003, published 2010).
# Settings: human subjects, betaine supplementation
structure (smiles),measurement,value
C[N+](C)(C)CC(=O)O [betaine],Effect on blood pressure,"reduces the blood pressure, especially the diastolic pressure"
